In patent publication US20100203012A1, “IAP BIR DOMAIN BINDING COMPOUNDS” (Aegera Therapeutics, Inc., priority 2007, published 2010):

Columns and labels:
SKOV3 cells = experiment: Cytotoxicity assay (MTT) on SKOV3 cells; type: cell-based; details: Homo sapiens, SK-OV-3, 72 hours, single agent
Protocol: (§1) SKOV3 (ovarian) and HCT-116 (colon) cancer cells were cultured in McCoy's 5A media supplemented with 10% FBS and 100 units/mL of Penicillin and Streptomycin.
(§2) Cytotoxicity assays were performed on various cell lines including SKOV3 and HCT-116 cells. Cells were seeded in 96 well plates at a respective density of 2000 and 5000 cells per well and incubated at 37° C. in presence of 5% CO2 for 24 hours. Selected compounds were diluted into the media at various concentrations ranging from 0.01 nM up to 100 nM. Diluted compounds were added onto the SKOV3 cells. HCT-116 cells were co-treated with Trail receptor monoclonal antibody agonist (HGS-ETR^1, 40 ng/mL). After 72 hours, cellular viability was evaluated by MTT conversion. A solution of 3-(4,5-dimethylthiazol-2-yl)-2,5-diphenyltetrazolium bromide (MTT) was added onto cells for a period of 1 to 4 hours. Media was removed and replaced with isopropanol. Conversion of MTT by viable cells was detected by absorbance at 570 nm. The percentage of viability was expressed in percentage of the signal obtained with non treated cells.

HCT116 cells = experiment: Cytotoxicity assay (MTT) on HCT-116 cells co-treated with HGS-ETR1; type: cell-based; details: Homo sapiens, co-treated with HGS-ETR1 40 ng/mL, 72 hours
Protocol: as §1, §2

[1] = molecular target: T1, XIAP BIR2-BIR3-ring (GST-linker BIR 2 BIR3Ring) (Homo sapiens, UniProt P98170); experiment: Fluorescence polarization competition assay, BIR2-BIR3-ring, probe P2; type: binding; details: ki derived from IC50, read-out: ki in the BIR2-BIR3-ring FP assay
T1 construct: made in house; host or cells: Escherichia coli DH5-alpha
T1 sequence (P98170 93-497): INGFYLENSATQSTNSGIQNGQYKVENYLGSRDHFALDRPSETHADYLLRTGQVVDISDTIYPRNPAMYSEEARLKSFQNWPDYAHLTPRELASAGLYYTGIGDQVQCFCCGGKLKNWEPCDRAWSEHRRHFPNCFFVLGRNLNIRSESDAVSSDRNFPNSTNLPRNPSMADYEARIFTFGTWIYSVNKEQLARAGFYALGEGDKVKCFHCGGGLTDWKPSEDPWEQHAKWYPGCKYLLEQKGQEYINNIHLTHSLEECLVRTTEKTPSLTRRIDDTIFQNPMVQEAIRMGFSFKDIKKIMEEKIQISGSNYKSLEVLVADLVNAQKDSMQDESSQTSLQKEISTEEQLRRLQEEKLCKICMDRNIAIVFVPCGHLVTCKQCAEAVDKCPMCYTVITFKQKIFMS
Source text: GST-linker BIR 2 BIR3Ring: XIAP coding sequence from amino acids 93-497 cloned into PGex4T1 via BamH1 and XhoI. Amino acids 93-497 were amplified from full length XIAP in pGex4t3, using the primers: […] and GCTGCATGTGTGTCAGAGG, using standard PCR conditions. The PCR fragment was TA cloned into pCR-2.1 (invitrogen). Linker BIR 2 BIR 3Ring was subcloned into pGex4T1 by BamHI/XhoI digestion. The plasmid was transformed into E. coli DH5α for use in protein expression and purification.
For all assays, the fluorescence and fluorescence-polarization was evaluated using a Tecan Polarion instrument with the excitation filter set at 485 nm and the emission filter set at 535 nm. […] Upon establishing these conditions, the compounds potency (IC50) and selectivity, was assessed in the presence of a fix defined-amount of target protein and fluorescent probe and a 10 point serial dilution of the selected compounds. […] Auto-fluorescence for each compound was first assessed by performing a reading of the compound/BSA solution alone. Then 25 uL of the fluorescein probe (P1 or P2) diluted into 50 mM MES containing 0.05 mg/ml BSA were added and a reading to detect quenching of fluorescein signal done. Finally 25 uL/well of the target or control protein (GST-BIRs) diluted at the appropriate concentration in 50 mM MES containing 0.05 mg/ml BSA were added and the fluorescence polarization evaluated. […]

Ki [1] [nM]	SMILES	EC50 (SKOV3 cells) [nM]	EC50 (HCT116 cells) [nM]
	CN[C@@H](C)C(=O)N[C@H](C(=O)N1CCN(C(=O)c2ccc(C(=O)N3CCN(C(=O)[C@@H](NC(=O)[C@H](C)NC)C(C)(C)C)[C@H](C(=O)N[C@@H]4CCCc5ccccc54)C3)cc2)C[C@H]1C(=O)N[C@@H]1CCCc2ccccc21)C(C)(C)C [Compound 1]	< 50	< 50
	CN[C@@H](C)C(=O)N[C@H](C(=O)N1CCN(C(=O)CCCCCCCCC(=O)N2CCN(C(=O)[C@@H](NC(=O)[C@H](C)NC)C(C)(C)C)[C@H](C(=O)N[C@@H]3CCCc4ccccc43)C2)C[C@H]1C(=O)N[C@@H]1CCCc2ccccc21)C(C)(C)C [Compound 2]	< 50	< 50
< 100	CN[C@@H](C)C(=O)N[C@H](C(=O)N1CCN(C(=O)CNC(=O)c2ccc(-c3ccc(C(=O)NCC(=O)N4CCN(C(=O)[C@@H](NC(=O)[C@H](C)NC)C(C)(C)C)[C@H](C(=O)N[C@@H]5CCCc6ccccc65)C4)cc3)cc2)C[C@H]1C(=O)N[C@@H]1CCCc2ccccc21)C(C)(C)C [Compound 3]		
